Data as given in article PMC2667487, “Cellular localization of kinin B1 receptor in the spinal cord of streptozotocin-diabetic rats with a fluorescent [N^α-Bodipy]-des-Arg^9-bradykinin” (Journal of Neuroinflammation, 2009).
Where “and” joins values, the source holds several entries; their conditions need not be identical. Equal entries are not always repeated. Entries after “also recorded” stand apart in the source; their conditions may differ. Square brackets hold non-standard residues; d marks the D form. Peptide text beside a SMILES is read from it. d2Nal = N[C@H](Cc1ccc2ccccc2c1)C(=O)O

How the values were obtained:
[1] = system: B1R mRNA in thoracic spinal cord; assay: B1R mRNA expression, SYBR green-based quantitative RT-PCR; parameters: species or system rat; details: STZ 65 mg/kg i.p., 4 days, 18S reference, means of 3 to 6 rats
Experimental: (§1) Rats were used 5 days after their arrival and injected under low light with freshly prepared STZ (65 mg/kg; i.p.; Sigma-Aldrich, Oakville, ON, Canada). Age-matched controls were injected with vehicle (sterile saline 0.9%, pH. 7.0). Glucose concentrations were measured, with a commercial blood glucose-monitoring kit (Accusoft; Roche Diagnostics, Laval, Que., Canada), in blood samples obtained from the tail vein, in non-fasting animals, before STZ injection, and 4 days after treatment. Only STZ-treated rats whose blood glucose concentration was higher than 20 mM were considered as diabetic.
Four days after injection of STZ, rats were anaesthetized with CO2 inhalation and then decapitated. […] First-strand cDNA synthesized from 400 ng total RNA with random hexamer primers was used as template for each reaction with the QuantiTect Rev Transcription Kit (QIAGEN). SYBR Green-based real-time quantitative PCR using Mx3000p device for signal detection (Stratagene, La Jolla, CA, USA) was performed as described. […] For standardization and quantification, rat 18S was amplified simultaneously. […]
PCR conditions were as follows: 95°C for 15 min, followed by 46 cycles at 94°C for 15 s, 60°C for 30 s and 72°C for 30 s. […] The relative quantification of gene expression was analyzed by the 2^-ΔΔCt method.

[2] = system: B1R binding sites in thoracic spinal cord; assay: density of specific B1R binding sites, quantitative autoradiography; parameters: species or system rat; details: STZ 65 mg/kg i.p., 4 days, 7 to 8 rats
Experimental: as §1
The radioligands for kinin B1R, HPP-desArg^10-Hoe140 (3-(4 hydroxyphenyl) propionyl-desArg^9-D-Arg^0 [Hyp^3, Thi^5, D-Tic^7, Oic^8]Bradykinin) and kinin B2R, HPP-Hoe140 (3-(4 hydroxyphenyl) propionyl-D-Arg^0 [Hyp^3, Thi^5, D-Tic^7, Oic^8]Bradykinin) were synthesized and kindly provided by Dr Witold Neugebauer (Dept Pharmacology, University of Sherbrooke, Sherbrooke, Que., Canada). They were iodinated by the chloramine T method. […] Autoradiograms were quantified by densitometry using an MCID™ image analysis system (Imaging Research, St. Catharines, ON, Canada). […] Specific binding was determined by subtracting values of nonspecific binding from that of total binding.

[3] = biological target: T1, kinin B1R (Rattus norvegicus, UniProt P97583); assay: competition curves by quantitative autoradiography, displacement of [^125I]-HPP-desArg^10-Hoe 140 (B1R); details: 200 pM [^125I]-HPP-desArg^10-Hoe 140, competitor 10^-10 to 10^-6 M, thoracic spinal cord sections of STZ-treated rats, 90 min, room temperature, 25 mM PIPES-NH4OH pH 7.4; means ± SEM, 4 sections per rat from 7 rats; read-out: IC50, inhibition of total B1R binding sites
T1 construct: from tissue; host or cells: rat spinal cord sections (autoradiography)
T1 sequence (P97583 1-337): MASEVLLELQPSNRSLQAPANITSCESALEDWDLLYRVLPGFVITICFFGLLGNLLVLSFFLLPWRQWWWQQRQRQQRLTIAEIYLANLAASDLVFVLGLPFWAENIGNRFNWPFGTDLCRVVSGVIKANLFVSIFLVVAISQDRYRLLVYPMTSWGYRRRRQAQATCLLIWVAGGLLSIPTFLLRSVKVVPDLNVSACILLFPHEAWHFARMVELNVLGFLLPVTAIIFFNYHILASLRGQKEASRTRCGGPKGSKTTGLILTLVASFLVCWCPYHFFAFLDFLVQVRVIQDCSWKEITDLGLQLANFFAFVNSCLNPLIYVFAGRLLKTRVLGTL
Experimental: (§2) They were iodinated by the chloramine T method. […] At the end of the incubation period, slides were transferred sequentially through four rinses of 4 min each in 25 mM PIPES (pH 7.4; 4°C) dipped for 15s in distilled water (4°C) to remove the excess of salts, and then air-dried. Kodak Scientific Imaging Films BIOMAXTM MR® (Amersham Pharmacia Biotech Canada) were juxtaposed onto the slides in the presence of [^125I]-microscales and exposed at room temperature for 7 days. The films were developed (GBX developer) and fixed (GBX fixer). Autoradiograms were quantified by densitometry using an MCIDTM image analysis system (Imaging Research, St. Catharines, ON, Canada). A standard curve from [^125I]-microscales was used to convert density levels into fentomoles per milligram of protein [48]. Specific binding was determined by subtracting values of nonspecific binding from that of total binding. […] Each concentration of each competitor was tested on 4 sections per rat from 7 different rats. Those sections were exposed to the film, and total binding was calculated as described above. […] All data were expressed as means ± S.E.M. obtained from n rats. Statistical significance was determined with Student's t-test for unpaired samples or a one-way analysis of variance (ANOVA) followed by post-hoc Dunnett test for multiple comparisons.

[4] = biological target: T2, kinin B2R (Rattus norvegicus, UniProt P25023); assay: competition curves by quantitative autoradiography, displacement of [^125I]-HPP-Hoe 140 (B2R); details: 200 pM [^125I]-HPP-Hoe 140, competitor 10^-10 to 10^-6 M, thoracic spinal cord sections of STZ-treated rats, 90 min, room temperature, 25 mM PIPES-NH4OH pH 7.4; means ± SEM, 4 sections per rat from 7 rats; read-out: IC50, displacement of B2R binding sites
T2 construct: from tissue; host or cells: rat tissue sections (spinal cord, autoradiography)
T2 sequence (P25023 1-396): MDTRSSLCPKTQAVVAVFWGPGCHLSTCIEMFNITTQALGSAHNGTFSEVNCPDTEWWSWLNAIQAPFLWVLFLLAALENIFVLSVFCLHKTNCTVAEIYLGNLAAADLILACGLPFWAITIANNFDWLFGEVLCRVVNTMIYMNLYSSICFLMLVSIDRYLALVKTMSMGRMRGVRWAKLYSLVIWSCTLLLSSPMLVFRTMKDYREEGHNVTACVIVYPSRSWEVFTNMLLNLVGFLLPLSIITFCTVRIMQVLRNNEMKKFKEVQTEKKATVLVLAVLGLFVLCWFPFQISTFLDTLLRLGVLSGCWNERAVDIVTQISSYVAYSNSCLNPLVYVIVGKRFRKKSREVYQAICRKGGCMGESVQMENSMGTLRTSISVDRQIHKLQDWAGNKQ
Experimental: as §2

[5] = system: rat model of insulin-resistance; details: cited from earlier work
Text: (§3) Importantly, the development of tactile and cold allodynia in a rat model of insulin-resistance was blocked by the B1R antagonist SSR240612 [28] and by two antioxidants (N-acetyl-L-cysteine and alpha-lipoic acid) ...

[6] = system: B1R; details: cited from earlier work
Text: as §3

[7] = system: B1R in thoracic spinal cord; assay: BdABK fluorescent labeling of B1R and its displacement, confocal microscopy; type: binding, rat; details: STZ-treated thoracic spinal cord, BdABK 50 μM co-incubated with 10^-5 M antagonist
Experimental: On the day of experiments, sections were thawed at room temperature for 10 min to enhance sections adhesion. They were pre-incubated for 10 min in 25 mM PIPES-NH4OH buffer (pH 7.4) to allow degradation of endogenous kinins which could occupy receptors. Sections were exposed for 90 min to 50 μM BdABK. Thereafter, slides were washed twice (1 min) in PIPES and fixed with 4% para-formaldehyde. Slides were washed three times (5 min) and then exposed to 1 M of glycine for 90 min to eliminate autofluorescence from aldehyde-fixed tissue. […] Each concentration of each competitor was tested on 4 sections per rat from 7 different rats. Those sections were exposed to the film, and total binding was calculated as described above.

## CN(N=O)C(=O)N[C@H]1C(O)O[C@H](CO)[C@@H](O)[C@@H]1O (mixture of isomers) [STZ, streptozotocin]
[1]
  B1R mRNA expression increase (fold change vs control): 18 fold and 18.1 fold
[2]
  B1R binding sites, fold vs control: 2.7 fold

## CC1=CC(C)=[N+]2C1=Cc1ccc(CCC(=O)N[C@@H](CCCNC(=N)N)C(=O)N3CCC[C@H]3C(=O)N3CCC[C@H]3C(=O)NCC(=O)N[C@@H](Cc3ccccc3)C(=O)N[C@@H](CO)C(=O)N3CCC[C@H]3C(=O)N[C@@H](Cc3ccccc3)C(=O)O)n1[B-]2(F)F [BdABK, [N^α-Bodipy]-des-Arg^9-BK]
[3]
  IC50: 5.3 nM

## NC(N)=NCCC[C@@H](N)C(=O)N[C@@H](CCCN=C(N)N)C(=O)N1CCC[C@H]1C(=O)N1C[C@H](O)C[C@H]1C(=O)NCC(=O)N[C@@H](Cc1cccs1)C(=O)N[C@@H](CO)C(=O)N1Cc2ccccc2C[C@@H]1C(=O)N1[C@H](C(=O)N[C@@H](CCCN=C(N)N)C(=O)O)C[C@@H]2CCCC[C@@H]21 [Hoe 140]
[4]
  IC50: 1.33 ± 0.1 nM

## CC(=O)N[C@@H](CS)C(=O)O [N-acetyl-L-cysteine]
[5]
  development of tactile and cold allodynia, antioxidants: blocked
[6]
  induction of B1R, antioxidants: prevent the induction of B1R

## CC[C@H](C)[C@H](NC(=O)[C@@H](Cc1ccc2ccccc2c1)NC(=O)[C@H](CO)NC(=O)[C@H](Cc1ccccc1)NC(=O)CNC(=O)[C@@H]1CCCN1C(=O)[C@@H]1CCCN1C(=O)[C@H](CCCN=C(N)N)NC(=O)[C@H](CCCCN)NC(C)=O)C(=O)O [R-715, AcLys [D-βNal^7, Ile^8]des-Arg^9-BK] (Ac-KRPPGFS[d2Nal]I-OH)
[3]
  IC50: 4.3 nM

## CCN(C(=O)[C@@H](Cc1ccc(CN2[C@H](C)CCC[C@@H]2C)cc1)NC(=O)C[C@@H](NS(=O)(=O)c1ccc2cc(OC)ccc2c1)c1ccc2c(c1)OCO2)C(C)C.Cl [SSR240612]
[7]
  displacement of BdABK labeling by B1R antagonist: absence of BdABK labeling; also recorded: B1R labeling was absent; also recorded: elimination of B1R labeling
[5]
  development of tactile and cold allodynia: blocked

## O=C(O)CCCCC1CCSS1 (stereo not drawn) [alpha-lipoic acid]
[5]
  development of tactile and cold allodynia, antioxidants: blocked
[6]
  induction of B1R, antioxidants: prevent the induction of B1R

## N=C(N)NCCC[C@H](N)C(=O)N1CCC[C@H]1C(=O)N1CCC[C@H]1C(=O)NCC(=O)N[C@@H](Cc1ccccc1)C(=O)N[C@@H](CO)C(=O)N1CCC[C@H]1C(=O)N[C@@H](Cc1ccccc1)C(=O)O [des-Arg^9-BK]
[3]
  IC50: 19 nM
